Data as given in ChEMBL document CHEMBL5244272 (Eur J Med Chem, 2021).
pEC50, pIC50: −log10 of the molar value. Converted amounts (≈) assume the structure as drawn.

Legend:
Plasmodium berghei [1] = experiment: Antimalarial activity against Plasmodium berghei N strain infected in mouse at 15 mg/kg, ip administered once daily for 4 days; format: functional; details: time 4 day
Plasmodium falciparum [2] = experiment: Antimalarial activity against chloroquine sensitive Plasmodium falciparum FCR-3; format: functional, organism-based
[3] = Cytotoxicity against human MRC5 cells; format: toxicity, cell-based
Plasmodium falciparum [4] = experiment: Antimalarial activity against Plasmodium falciparum K1; format: functional, organism-based
Plasmodium vinckei [5] = experiment: Antimalarial activity against Plasmodium vinckei infected in ip dosed mouse; format: functional
Plasmodium vinckei [6] = experiment: Antimalarial activity against Plasmodium vinckei infected in po dosed mouse; format: functional
Plasmodium falciparum [7] = experiment: Antimalarial activity against Plasmodium falciparum 3D7; format: functional, organism-based
Plasmodium falciparum [8] = experiment: Antimalarial activity against ART-resistant Plasmodium falciparum Dd2 harboring R539T mutant; format: functional, organism-based
Plasmodium falciparum [9] = experiment: Antimalarial activity against ART-resistant Plasmodium falciparum NF54 harboring […] mutant; format: functional, organism-based
Plasmodium falciparum [10] = experiment: Antimalarial activity against ART-sensitive Plasmodium falciparum W2; format: functional, organism-based
Plasmodium falciparum [11] = experiment: Antimalarial activity against ART-sensitive Plasmodium falciparum NF54; format: functional, organism-based
Plasmodium falciparum [12] = experiment: Antimalarial activity against ART-sensitive Plasmodium falciparum 3D7; format: functional, organism-based
Plasmodium vinckei [13] = experiment: Antimalarial activity against Plasmodium vinckei infected in mouse assessed as reduction in parasitaemia at 25 mg/kg, po or 7.5 mg/kg, ip measured on day 5; format: functional; set-up: scale not given: the % may be the effect or the level left
Plasmodium vinckei [14] = experiment: Antimalarial activity against Plasmodium vinckei infected in mouse assessed as reduction in parasitaemia at 50 mg/kg, po or […], ip measured on day 5; format: functional; set-up: scale not given: the % may be the effect or the level left
Plasmodium falciparum [15] = experiment: Antimalarial activity against Plasmodium falciparum D6; format: functional, organism-based
Plasmodium falciparum [16] = experiment: Antimalarial activity against Plasmodium falciparum W2; format: functional, organism-based
Plasmodium berghei [17] = experiment: Antimalarial activity against Plasmodium berghei infected in mouse assessed as increase in survival at 100 mg/kg, po; format: functional
Plasmodium yoelii [18] = experiment: Antimalarial activity against Plasmodium yoelii infected in sc dosed mouse; format: functional
Plasmodium berghei [19] = experiment: Antimalarial activity against Plasmodium berghei infected in po dosed mouse; format: functional
Plasmodium yoelii [20] = experiment: Antimalarial activity against Plasmodium yoelii infected in po dosed mouse; format: functional
Plasmodium berghei [21] = experiment: Antimalarial activity against Plasmodium berghei infected in sc dosed mouse; format: functional; details: Plasmodium berghei
[22] = Selectivity index, ratio of IC50 for human AB943 to IC50 for chloroquine resistant Plasmodium falciparum FcB1/Colombia
Plasmodium falciparum [23] = experiment: Antimalarial activity against chloroquine resistant Plasmodium falciparum FcB1/Colombia; format: functional, organism-based
Plasmodium falciparum [24] = experiment: Antimalarial activity against Plasmodium falciparum IPC4912; format: functional, organism-based
Plasmodium falciparum [25] = experiment: Antimalarial activity against Plasmodium falciparum Dd2; format: functional, organism-based
Plasmodium falciparum [26] = experiment: Antimalarial activity against Plasmodium falciparum IPC5202; format: functional, organism-based
Plasmodium berghei [27] = experiment: Antimalarial activity against Plasmodium berghei N strain infected in mouse at 30 mg/kg, ip administered once daily for 4 days; format: functional; details: time 4 day
Plasmodium falciparum [28] = experiment: Potency index, ratio of chloroquine IC50 to test compound IC50 for Plasmodium falciparum INDO; format: functional
[29] = Cytotoxicity against HEK293 cells; format: toxicity, cell-based; details: human
Plasmodium falciparum [30] = experiment: Antimalarial activity against Plasmodium falciparum INDO; format: functional, organism-based
Plasmodium falciparum [31] = experiment: Antimalarial activity against chloroquine-sensitive Plasmodium falciparum NF54 infected in po dosed mouse; format: functional
Plasmodium falciparum [32] = experiment: Antimalarial activity against chloroquine-sensitive Plasmodium falciparum NF54 infected in iv dosed mouse; format: functional
Plasmodium falciparum [33] = experiment: Antimalarial activity against chloroquine-sensitive Plasmodium falciparum NF54; format: functional, organism-based
Plasmodium falciparum [34] = experiment: Antimalarial activity against Plasmodium falciparum; format: functional, organism-based
[35] = Toxicity in brine shrimp; details: artemia salina

C[C@H]1C(=O)O[C@@H]2O[C@]3(C)CC[C@H]4N(Cc5ccc(OCCN6CCOCC6)cc5)CC[C@@H]1[C@@]24OO3
Activity (Plasmodium berghei [1]): 98.6% | pIC50 (Plasmodium falciparum [2]): 7.74 | pIC50 [3]: 4.45 | pIC50 (Plasmodium falciparum [4]): 7.48

C[C@H]1[C@@H](OCCNCCNc2ccnc3cc(Cl)ccc23)O[C@@H]2O[C@]3(C)CC[C@H]4[C@H](C)CC[C@@H]1[C@@]24OO3
ED50 (Plasmodium vinckei [5]): 1.4 mg/kg | ED50 (Plasmodium vinckei [6]): 16 mg/kg | pIC50 (Plasmodium falciparum [7]): 7.69

C[C@H]1[C@@H](OCCCNc2ccc([N+](=O)[O-])c3nonc23)O[C@@H]2O[C@]3(C)CC[C@H]4[C@H](C)CC[C@@H]1[C@@]24OO3
pIC50 (Plasmodium falciparum [8]): 7.71 | pIC50 (Plasmodium falciparum [9]): 8.02 | pIC50 (Plasmodium falciparum [10]): 8.02 | pIC50 (Plasmodium falciparum [11]): 7.95 | pIC50 (Plasmodium falciparum [12]): 7.65

C[C@H]1[C@@H](OCCN(CCCNc2ccnc3cc(Cl)ccc23)CCO[C@H]2O[C@@H]3O[C@]4(C)CC[C@H]5[C@H](C)CC[C@@H]([C@H]2C)[C@@]35OO4)O[C@@H]2O[C@]3(C)CC[C@H]4[C@H](C)CC[C@@H]1[C@@]24OO3
Activity (Plasmodium vinckei [13]): <1% | Activity (Plasmodium vinckei [14]): <1%

C[C@H]1[C@@H](OCC(CO[C@H]2O[C@@H]3O[C@]4(C)CC[C@H]5[C@H](C)CC[C@@H]([C@H]2C)[C@@]35OO4)=NO)O[C@@H]2O[C@]3(C)CC[C@H]4[C@H](C)CC[C@@H]1[C@@]24OO3
pIC50 (Plasmodium falciparum [15]): 7.86 | pIC50 (Plasmodium falciparum [16]): 8.00 | Activity (Plasmodium berghei [17]): 100%

C[C@H]1[C@H](NC2CCN(c3ncccn3)CC2)O[C@@H]2O[C@]3(C)CC[C@H]4[C@H](C)CC[C@@H]1[C@@]24OO3
ED90 (Plasmodium yoelii [18]): 0.52 mg/kg | ED90 (Plasmodium berghei [19]): 1.5 mg/kg | ED90 (Plasmodium yoelii [20]): 2 mg/kg | ED90 (Plasmodium berghei [21]): 0.46 mg/kg

C[C@H]1[C@H](NC2CCOCC2)O[C@@H]2O[C@]3(C)CC[C@H]4[C@H](C)CC[C@@H]1[C@@]24OO3
ED90 (Plasmodium yoelii [18]): 1.25 mg/kg | ED90 (Plasmodium berghei [19]): 1.3 mg/kg | ED90 (Plasmodium yoelii [20]): 1.84 mg/kg | ED90 (Plasmodium berghei [21]): 0.18 mg/kg

CCOP(=O)(CCCN(O)C(=O)CCC(=O)N(CCCCNC(=O)CCO[C@H]1O[C@@H]2O[C@]3(C)CC[C@H]4[C@H](C)CC[C@@H]([C@H]1C)[C@@]24OO3)CCCCNC(=O)CC[C@@H]1O[C@@H]2O[C@@]3(C)CC[C@@H]4[C@@H](C)CC[C@@H]([C@@H]1C)[C@]24OO3)OCC
Ratio IC50 [22]: 34 | pIC50 (Plasmodium falciparum [23]): 9.19

C1C2CC3CC1CC(C2)[C@]31OO[C@@]2(CCC(Nc3nn[nH]n3)CC2)O1 (some centres not stated)
pIC50 (Plasmodium falciparum [24]): 8.17 | pIC50 (Plasmodium falciparum [25]): 8.60 | pIC50 (Plasmodium falciparum [7]): 8.55 | pIC50 (Plasmodium falciparum [26]): 8.21

C[C@H]1C(=O)O[C@@H]2O[C@]3(C)CC[C@H]4N(Cc5ccccc5)CC[C@@H]1[C@@]24OO3
Activity (Plasmodium berghei [1]): 69.1% | pIC50 (Plasmodium falciparum [2]): 7.24 | pIC50 [3]: 3.79 | Activity (Plasmodium berghei [27]): 95.6% | pIC50 (Plasmodium falciparum [4]): 7.07

C=C(c1ccc(-c2cccc3ccccc23)cc1)C1COC2(CCCC2)OO1 (configuration not stated)
Ratio IC50 (Plasmodium falciparum [28]): >9 | CC50 [29]: 3300 nM | pIC50 (Plasmodium falciparum [30]): 7.23

C[C@H]1[C@H](CC(COC(=O)c2cc[n+]([O-])cc2)C[C@H]2O[C@@H]3O[C@]4(C)CC[C@H]5[C@H](C)CC[C@@H]([C@H]2C)[C@@]35OO4)O[C@@H]2O[C@]3(C)CC[C@H]4[C@H](C)CC[C@@H]1[C@@]24OO3 (some centres not stated)
ED50 (Plasmodium falciparum [31]): 2 mg/kg | ED50 (Plasmodium falciparum [32]): 0.8 mg/kg | pEC50 (Plasmodium falciparum [33]): 9.28

COC1(c2ccc(S(C)(=O)=O)cc2)CCC2(CCCCC2)OO1 (configuration not stated)
pIC50 (Plasmodium falciparum [34]): 7.51

C[C@H]1[C@H](OC(=O)CCCc2ccccc2)O[C@@H]2O[C@]3(C)CC[C@H]4[C@H](C)CC[C@@H]1[C@@]24OO3
LC50 [35]: 139 µg/mL (≈ 323 µM) | pIC50 (Plasmodium falciparum [7]): 8.27

C[C@H]1[C@@H](OCC(CO[C@H]2O[C@@H]3O[C@]4(C)CC[C@H]5[C@H](C)CC[C@@H]([C@H]2C)[C@@]35OO4)=NOC(=O)CCC(=O)O)O[C@@H]2O[C@]3(C)CC[C@H]4[C@H](C)CC[C@@H]1[C@@]24OO3
Activity (Plasmodium berghei [17]): 100%

CC(CNCCO[C@H]1O[C@@H]2O[C@]3(C)CC[C@H]4[C@H](C)CC[C@@H]([C@H]1C)[C@@]24OO3)Nc1ccnc2cc(Cl)ccc12 (some centres not stated)
ED50 (Plasmodium vinckei [5]): 1.1 mg/kg | ED50 (Plasmodium vinckei [6]): 12 mg/kg

Cn1nnc(NCC2CC[C@]3(CC2)OO[C@]2(O3)C3CC4CC(C3)CC2C4)n1 (some centres not stated)
pIC50 (Plasmodium falciparum [24]): 8.32 | pIC50 (Plasmodium falciparum [25]): 8.68 | pIC50 (Plasmodium falciparum [7]): 8.54 | pIC50 (Plasmodium falciparum [26]): 8.47
